According to patent publication US12023330B2, “Use of manzamines as antiproliferative agent” (priority 2020, dated 2024):

Test system: C33A cells
Assay: Cell cycle distribution by flow cytometry (PI)
Assay type: cell-based, human
Details: 4 μM, 48 and 72 hours
Description: Differential Activation of G1 Phase Arrest and Apoptosis by Manzamine A (1). To understand the mechanism of manzamine A (1)-mediated cell growth inhibition, we analyzed the cell cycle distribution by flow cytometry in C33A, HeLa, SiHa, and CaSki cell lines. […] FIGS. 3A and 3B show a representation of manzamine A (1) effect on cervical cancer cells treated with 4 μM concentration. […] The values represent standard error from the mean (mean±SE). DMSO serves as control. The significance level represents; *p<0.05; **p<0.001; ***[…]; and ns=non-significant. […] Particularly at 4 μM concentration, the percentage of G0/G1 cell population in SiHa and CaSki increased to 1.2 fold (p=0.001) and 1.4 fold (p=0.011) at 24 hours, and 1.2 fold (p=0.03) and 1.5 fold (p=0.006) at 48 hours as compared to respective DMSO control.
Cell-cycle and Apoptosis Analysis. Cervical cancer cells were seeded and treated with different concentrations of manzamine A (1) as above. Following trypsinization, one part of the cells was washed with PBS and fixed in chilled 70% ethanol on ice for 30 min. Cells were treated with RNAse A (1 mg/ml) at room temperature for 30 min and stained with propidium iodide (PI: 20 μg/ml). Cell-cycle distribution was analyzed by flow cytometry (Beckman Coulter Epics Elite, Beckman). A minimum of 10,000 events were counted per sample, and the data were analyzed using CXP software (Beckman Coulter) for the proportions of cells in G0/G1, S and G2/M phases of the cell cycle. The second part of the cells were washed twice with PBS and re-suspended in the buffer containing Alexa Fluor conjugated-Annexin-V and PI (Life Technologies, USA). The double staining of the cells was analyzed by flow cytometric analysis. A total of 10,000 cell events were collected to analyze the extent of early, late apoptosis, or necrosis from each sample with the percentages of bound annexin-V^+/PI^−, annexin V^+/PI^+, and annexin V^−/PI^+, respectively.

Q: With `O[C@]12C=C(c3nccc4c3[nH]c3ccccc34)[C@@H]3CCN(CCCC/C=C\CC1)C[C@@]31C[C@@H]3/C=C\CCCCN3[C@H]12` [manzamine A] as the compound, how does the G2/M cell population read?
A: The G2/M cell population was “significant decrease”.

Q: And the “cell population in G0/G1” value (vs DMSO control)?
A: Its value is “significant decrease”.
